# Experimental data taken from ChEMBL document CHEMBL1201861, “Genomics of Drug Sensitity in Cancer screening data, Wellcome Trust Sanger Institute”.
# pIC50: −log10 of the molar value.
# Assays:
# Test in all cases: cells
# Type in all cases: functional, cell-based
# Details in all cases: Homo sapiens
# [1] = tested on: DB
# Description: SANGER: Inhibition of human DB cell growth in a cell viability assay.
# [2] = tested on: DSH1;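 further: growth inhibition of human DSH1 cells, measured with a cell viability readout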
# Description: SANGER: Inhibition of human DSH1 cell growth in a cell viability assay.
# [3] = tested on: ES1;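 further: growth inhibition of ES1 cells, read out with a cell viability assay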
# Description: SANGER: Inhibition of human ES1 cell growth in a cell viability assay.
# [4] = tested on: ES7;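 further: growth inhibition of cultured human ES7 cells, read out as cell viability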
# Description: SANGER: Inhibition of human ES7 cell growth in a cell viability assay.
# [5] = tested on: EW-1;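 further: growth inhibition of the human EW-1 cell line, read out by a cell viability assay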
# Description: SANGER: Inhibition of human EW-1 cell growth in a cell viability assay.
# [6] = tested on: GR-ST
# Description: SANGER: Inhibition of human GR-ST cell growth in a cell viability assay.
# [7] = tested on: HC-1;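 further: growth inhibition of HC-1 cells measured by a cell viability assay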
# Description: SANGER: Inhibition of human HC-1 cell growth in a cell viability assay.
# [8] = tested on: HT
# Description: SANGER: Inhibition of human HT cell growth in a cell viability assay.
# [9] = tested on: HT-144
# Description: SANGER: Inhibition of human HT-144 cell growth in a cell viability assay.
# [10] = tested on: K562
# Description: SANGER: Inhibition of human K-562 cell growth in a cell viability assay.
# [11] = tested on: KARPAS-299
# Description: SANGER: Inhibition of human KARPAS-299 cell growth in a cell viability assay.
# [12] = tested on: KMOE-2;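 further: growth inhibition of human KMOE-2 cells, read out with a cell viability assay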
# Description: SANGER: Inhibition of human KMOE-2 cell growth in a cell viability assay.
# [13] = tested on: LAN-6;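 further: growth inhibition of LAN-6 cells, determined with a cell viability assay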
# Description: SANGER: Inhibition of human LAN-6 cell growth in a cell viability assay.
# [14] = tested on: LB2518-MEL;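 further: growth inhibition of human LB2518-MEL cells, measured with a cell viability assay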
# Description: SANGER: Inhibition of human LB2518-MEL cell growth in a cell viability assay.
# [15] = tested on: LB373-MEL-D;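 further: growth inhibition of the cell line, read out in a cell viability assay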
# Description: SANGER: Inhibition of human LB373-MEL-D cell growth in a cell viability assay.
# [16] = tested on: LB771-HNC;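 further: growth inhibition of LB771-HNC human cells, read out with a cell viability assay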
# Description: SANGER: Inhibition of human LB771-HNC cell growth in a cell viability assay.
# [17] = tested on: LC-2-ad;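 further: growth inhibition of human LC-2-ad cells, read out with a cell viability assay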
# Description: SANGER: Inhibition of human LC-2-ad cell growth in a cell viability assay.
# [18] = tested on: LOX IMVI
# Description: SANGER: Inhibition of human LOXIMVI cell growth in a cell viability assay.
# [19] = tested on: LS-513
# Description: SANGER: Inhibition of human LS-513 cell growth in a cell viability assay.
# [20] = tested on: LU-139
# Description: SANGER: Inhibition of human LU-139 cell growth in a cell viability assay.
# [21] = tested on: LXF-289 cell line
# Description: SANGER: Inhibition of human LXF-289 cell growth in a cell viability assay.
# [22] = tested on: MC116;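 further: growth inhibition of MC116 cells, read out with a cell viability assay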
# Description: SANGER: Inhibition of human MC116 cell growth in a cell viability assay.
# [23] = tested on: MFM-223
# Description: SANGER: Inhibition of human MFM-223 cell growth in a cell viability assay.
# [24] = tested on: MLMA;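 further: growth inhibition of MLMA cells (human), determined through a cell viability readout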
# Description: SANGER: Inhibition of human MLMA cell growth in a cell viability assay.
# [25] = tested on: MMAC-SF;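 further: growth inhibition of human MMAC-SF cells, read out with a cell viability assay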
# Description: SANGER: Inhibition of human MMAC-SF cell growth in a cell viability assay.
# [26] = tested on: MZ1-PC;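 further: cell viability assay measuring growth inhibition of human MZ1-PC cells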
# Description: SANGER: Inhibition of human MZ1-PC cell growth in a cell viability assay.
# [27] = tested on: MZ7-mel;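 further: growth inhibition of human MZ7-mel cells, measured by a cell viability assay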
# Description: SANGER: Inhibition of human MZ7-mel cell growth in a cell viability assay.
# [28] = tested on: Mo
# Description: SANGER: Inhibition of human Mo-T cell growth in a cell viability assay.
# [29] = tested on: NB5;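 further: growth inhibition of NB5 cells, read out as cell viability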
# Description: SANGER: Inhibition of human NB5 cell growth in a cell viability assay.
# [30] = tested on: NB6;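 further: growth inhibition of NB6 cells, read out by a cell viability assay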
# Description: SANGER: Inhibition of human NB6 cell growth in a cell viability assay.
# [31] = tested on: NCI-H1092;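 further: cell growth inhibition measured with a cell viability assay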
# Description: SANGER: Inhibition of human NCI-H1092 cell growth in a cell viability assay.
# [32] = tested on: NCI-H1304;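 further: growth inhibition of the cancer cell line, measured in a cell viability assay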
# Description: SANGER: Inhibition of human NCI-H1304 cell growth in a cell viability assay.
# [33] = tested on: NCI-H1650;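 further: growth inhibition of human NCI-H1650 cells measured by a cell viability assay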
# Description: SANGER: Inhibition of human NCI-H1650 cell growth in a cell viability assay.
# [34] = tested on: NCI-H1838;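 further: growth inhibition of NCI-H1838 cells, determined with a cell viability readout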
# Description: SANGER: Inhibition of human NCI-H1838 cell growth in a cell viability assay.
# [35] = tested on: NCI-H226;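 further: cell viability read-out used to gauge growth inhibition of the cells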
# Description: SANGER: Inhibition of human NCI-H226 cell growth in a cell viability assay.
# [36] = tested on: NCI-H446;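 further: growth inhibition of NCI-H446 cells determined by a cell viability assay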
# Description: SANGER: Inhibition of human NCI-H446 cell growth in a cell viability assay.
# [37] = tested on: NCI-H82;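 further: growth inhibition of NCI-H82 cells, measured with a cell viability readout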
# Description: SANGER: Inhibition of human NCI-H82 cell growth in a cell viability assay.
# [38] = tested on: SNU-5;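 further: cell viability readout used to measure growth inhibition in human NCI-SNU-5 cells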
# Description: SANGER: Inhibition of human NCI-SNU-5 cell growth in a cell viability assay.
# [39] = tested on: NH-12;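 further: growth inhibition of NH-12 cells, read out with a cell viability assay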
# Description: SANGER: Inhibition of human NH-12 cell growth in a cell viability assay.
# [40] = tested on: NMC-G1;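 further: growth inhibition of the NMC-G1 cell line, measured with a cell viability read-out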
# Description: SANGER: Inhibition of human NMC-G1 cell growth in a cell viability assay.
# [41] = tested on: OCI-AML2;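 further: growth inhibition of OCI-AML2 cells, read out with a cell viability assay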
# Description: SANGER: Inhibition of human OCI-AML2 cell growth in a cell viability assay.
# [42] = tested on: OCUB-M;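 further: growth inhibition of the cancer cell line, read out through a cell viability assay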
# Description: SANGER: Inhibition of human OCUB-M cell growth in a cell viability assay.
# [43] = tested on: OVCAR-4;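 further: growth inhibition of human OVCAR-4 cells, measured with a cell viability assay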
# Description: SANGER: Inhibition of human OVCAR-4 cell growth in a cell viability assay.
# [44] = tested on: PSN1;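 further: suppression of growth of human PSN1 cells, read out by a cell viability assay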
# Description: SANGER: Inhibition of human PSN1 cell growth in a cell viability assay.
# [45] = tested on: RCC10RGB;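 further: growth inhibition of human RCC10RGB cells, read out by a cell viability assay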
# Description: SANGER: Inhibition of human RCC10RGB cell growth in a cell viability assay.
# [46] = tested on: RKO;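 further: growth inhibition of human RKO cells, read out with a cell viability assay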
# Description: SANGER: Inhibition of human RKO cell growth in a cell viability assay.
# [47] = tested on: RPMI-8226
# Description: SANGER: Inhibition of human RPMI-8226 cell growth in a cell viability assay.
# [48] = tested on: Ramos-2G6-4C10;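 further: growth inhibition of the cell line, measured by a cell viability read-out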
# Description: SANGER: Inhibition of human Ramos-2G6-4C10 cell growth in a cell viability assay.
# [49] = tested on: SF-268;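 further: growth inhibition of SF-268 cells determined with a cell viability assay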
# Description: SANGER: Inhibition of human SF268 cell growth in a cell viability assay.
# [50] = tested on: SK-PN-DW;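 further: growth inhibition measured with a viability assay on these cells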
# Description: SANGER: Inhibition of human SK-PN-DW cell growth in a cell viability assay.
# [51] = tested on: SK-UT-1;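 further: growth inhibition of SK-UT-1 cells, measured by a cell viability assay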
# Description: SANGER: Inhibition of human SK-UT-1 cell growth in a cell viability assay.
# [52] = tested on: 697
# Description: SANGER: Inhibition of human 697 cell growth in a cell viability assay.
# [53] = tested on: 8-MG-BA;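 further: growth inhibition of 8-MG-BA cells, read out with a cell viability assay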
# Description: SANGER: Inhibition of human 8-MG-BA cell growth in a cell viability assay.
# [54] = tested on: A101D;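 further: growth inhibition of the cell line, measured with a viability assay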
# Description: SANGER: Inhibition of human A101D cell growth in a cell viability assay.
# [55] = tested on: BB30-HNC;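 further: growth inhibition of the cultured cell line, read out by a cell viability assay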
# Description: SANGER: Inhibition of human BB30-HNC cell growth in a cell viability assay.
# [56] = tested on: BE-13;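 further: growth inhibition of human BE-13 cells, measured with a cell viability assay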
# Description: SANGER: Inhibition of human BE-13 cell growth in a cell viability assay.
# [57] = tested on: BT-474
# Description: SANGER: Inhibition of human BT-474 cell growth in a cell viability assay.
# [58] = tested on: TE-10;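 further: growth inhibition of TE-10 cells, measured by a cell viability assay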
# Description: SANGER: Inhibition of human TE-10 cell growth in a cell viability assay.
# [59] = tested on: TE-6;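 further: growth inhibition of TE-6 cells, read out with a cell viability assay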
# Description: SANGER: Inhibition of human TE-6 cell growth in a cell viability assay.
# [60] = tested on: TE-8;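 further: growth inhibition of TE-8 cells, measured with a cell viability readout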
# Description: SANGER: Inhibition of human TE-8 cell growth in a cell viability assay.
# [61] = tested on: TE-9;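 further: cell growth inhibition, measured with a cell viability readout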
# Description: SANGER: Inhibition of human TE-9 cell growth in a cell viability assay.
# [62] = tested on: UACC-257
# Description: SANGER: Inhibition of human UACC-257 cell growth in a cell viability assay.
# [63] = tested on: CCRF-CEM;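 further: inhibition of CCRF-CEM cell growth, measured by a cell viability assay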
# Description: SANGER: Inhibition of human CCRF-CEM cell growth in a cell viability assay.
# [64] = tested on: CGTH-W-1;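 further: growth inhibition of human CGTH-W-1 cells measured by cell viability assay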
# Description: SANGER: Inhibition of human CGTH-W-1 cell growth in a cell viability assay.
# [65] = tested on: IA-LM
# Description: SANGER: Inhibition of human IA-LM cell growth in a cell viability assay.
# [66] = tested on: SNU-C2B
# Description: SANGER: Inhibition of human SNU-C2B cell growth in a cell viability assay.
compound,measurement,setting,value
Cc1ccc(NC(=O)c2cccc(C(C)(C)C#N)c2)cc1Nc1ccc2ncn(C)c(=O)c2c1,pIC50,[1],< 5.40
same,pIC50,[2],< 5.40
same,pIC50,[3],< 5.40
same,pIC50,[4],< 5.40
same,pIC50,[5],< 5.40
same,pIC50,[6],< 5.40
same,pIC50,[7],< 5.40
same,pIC50,[8],< 5.40
same,pIC50,[9],8.18
same,pIC50,[10],6.18
same,pIC50,[11],< 5.40
same,pIC50,[12],6.94
same,pIC50,[13],6.17
same,pIC50,[14],8.32
same,pIC50,[15],5.78
same,pIC50,[16],< 5.40
same,pIC50,[17],< 5.40
same,pIC50,[18],< 5.40
same,pIC50,[19],7.13
same,pIC50,[20],< 5.40
same,pIC50,[21],< 5.40
same,pIC50,[22],< 5.40
same,pIC50,[23],< 5.40
same,pIC50,[24],< 5.40
same,pIC50,[25],7.40
same,pIC50,[26],6.55
same,pIC50,[27],6.93
same,pIC50,[28],< 5.40
same,pIC50,[29],5.71
same,pIC50,[30],< 5.40
same,pIC50,[31],< 5.40
same,pIC50,[32],< 5.40
same,pIC50,[33],< 5.40
same,pIC50,[34],< 5.40
same,pIC50,[35],< 5.40
same,pIC50,[36],< 5.40
same,pIC50,[37],< 5.40
same,pIC50,[38],5.55
same,pIC50,[39],< 5.40
same,pIC50,[40],< 5.40
same,pIC50,[41],7.77
same,pIC50,[42],< 5.40
same,pIC50,[43],< 5.40
same,pIC50,[44],7.56
same,pIC50,[45],< 5.40
same,pIC50,[46],7.42
same,pIC50,[47],5.61
same,pIC50,[48],< 5.40
same,pIC50,[49],< 5.40
same,pIC50,[50],< 5.40
same,pIC50,[51],< 5.40
same,pIC50,[52],6.44
same,pIC50,[53],< 5.40
same,pIC50,[54],8.24
same,pIC50,[55],5.71
same,pIC50,[56],6.09
same,pIC50,[57],< 5.40
same,pIC50,[58],< 5.40
same,pIC50,[59],< 5.40
same,pIC50,[60],< 5.40
same,pIC50,[61],< 5.40
same,pIC50,[62],7.56
same,pIC50,[63],< 5.40
same,pIC50,[64],6.92
NC(=O)c1ncn([C@@H]2O[C@H](COP(=O)(O)O)[C@@H](O)[C@H]2O)c1N,pIC50,[1],4.04
same,pIC50,[2],< 2.70
same,pIC50,[3],< 2.70
same,pIC50,[4],< 2.70
same,pIC50,[5],2.73
same,pIC50,[6],3.37
same,pIC50,[7],2.93
same,pIC50,[8],3.00
same,pIC50,[9],< 2.70
same,pIC50,[65],3.07
same,pIC50,[10],< 2.70
same,pIC50,[11],< 2.70
same,pIC50,[12],3.38
same,pIC50,[14],< 2.70
same,pIC50,[15],< 2.70
same,pIC50,[16],< 2.70
same,pIC50,[17],2.93
same,pIC50,[18],3.03
same,pIC50,[19],< 2.70
same,pIC50,[20],3.10
same,pIC50,[22],2.89
same,pIC50,[23],2.94
same,pIC50,[24],3.43
same,pIC50,[25],< 2.70
same,pIC50,[26],< 2.70
same,pIC50,[27],2.75
same,pIC50,[28],< 2.70
same,pIC50,[29],< 2.70
same,pIC50,[30],< 2.70
same,pIC50,[31],2.91
same,pIC50,[32],< 2.70
same,pIC50,[33],< 2.70
same,pIC50,[34],< 2.70
same,pIC50,[35],< 2.70
same,pIC50,[36],< 2.70
same,pIC50,[37],3.00
same,pIC50,[38],< 2.70
same,pIC50,[39],< 2.70
same,pIC50,[40],< 2.70
same,pIC50,[41],2.94
same,pIC50,[42],2.92
same,pIC50,[43],3.12
same,pIC50,[44],2.71
same,pIC50,[45],< 2.70
same,pIC50,[46],3.08
same,pIC50,[47],3.30
same,pIC50,[48],3.62
same,pIC50,[49],< 2.70
same,pIC50,[50],3.13
same,pIC50,[51],< 2.70
same,pIC50,[66],< 2.70
same,pIC50,[52],3.32
same,pIC50,[53],< 2.70
same,pIC50,[54],< 2.70
same,pIC50,[55],3.67
same,pIC50,[56],3.44
same,pIC50,[57],< 2.70
same,pIC50,[58],2.82
same,pIC50,[59],< 2.70
same,pIC50,[60],3.08
same,pIC50,[61],< 2.70
same,pIC50,[62],< 2.70
same,pIC50,[63],< 2.70
same,pIC50,[64],< 2.70
CC[C@@]1(O)C(=O)OCc2c1cc1n(c2=O)Cc2cc3ccccc3nc2-1 [CAMPTOTHECIN],pIC50,[1],8.94
same,pIC50,[2],7.80
same,pIC50,[3],10.02
same,pIC50,[4],10.59
same,pIC50,[5],8.75
same,pIC50,[6],9.15
same,pIC50,[7],8.48
same,pIC50,[8],7.53
same,pIC50,[9],7.75
same,pIC50,[65],7.92
same,pIC50,[10],< 7.00
same,pIC50,[11],< 7.00
same,pIC50,[12],7.95
same,pIC50,[14],7.06
same,pIC50,[15],7.04
same,pIC50,[17],8.55
same,pIC50,[18],8.43
same,pIC50,[19],7.71
same,pIC50,[20],7.78
same,pIC50,[21],8.15
same,pIC50,[22],7.80
same,pIC50,[23],< 7.00
same,pIC50,[24],8.09
same,pIC50,[25],7.42
same,pIC50,[26],7.69
same,pIC50,[27],8.06
same,pIC50,[29],8.72
same,pIC50,[31],7.36
same,pIC50,[32],7.23
same,pIC50,[35],7.65
same,pIC50,[36],7.25
same,pIC50,[37],< 7.00
same,pIC50,[38],7.37
same,pIC50,[39],8.42
same,pIC50,[40],7.70
same,pIC50,[41],9.05
same,pIC50,[42],7.42
same,pIC50,[44],8.51
same,pIC50,[46],8.37
same,pIC50,[47],7.53
same,pIC50,[48],7.98
same,pIC50,[49],8.47
same,pIC50,[50],8.94
same,pIC50,[51],8.51
same,pIC50,[66],7.45
same,pIC50,[52],8.69
same,pIC50,[53],8.82
same,pIC50,[55],7.67
same,pIC50,[56],8.34
same,pIC50,[57],< 7.00
same,pIC50,[60],8.38
same,pIC50,[61],7.63
same,pIC50,[63],8.26
same,pIC50,[64],8.48
CCn1c(-c2nonc2N)nc2cnc(Oc3cccc(NC(=O)c4ccc(OCCN5CCOCC5)cc4)c3)cc21 [GSK-269962A],pIC50,[1],< 5.60
same,pIC50,[2],< 5.60
same,pIC50,[3],< 5.60
same,pIC50,[4],< 5.60
same,pIC50,[5],< 5.60
same,pIC50,[6],< 5.60
same,pIC50,[7],< 5.60
same,pIC50,[8],< 5.60
same,pIC50,[9],< 5.60
same,pIC50,[10],< 5.60
same,pIC50,[11],< 5.60
same,pIC50,[12],< 5.60
same,pIC50,[13],< 5.60
same,pIC50,[14],5.77
same,pIC50,[15],< 5.60
same,pIC50,[16],< 5.60
same,pIC50,[17],< 5.60
same,pIC50,[18],< 5.60
same,pIC50,[19],< 5.60
same,pIC50,[20],< 5.60
same,pIC50,[21],< 5.60
same,pIC50,[22],< 5.60
same,pIC50,[23],< 5.60
same,pIC50,[24],< 5.60
same,pIC50,[25],< 5.60
same,pIC50,[26],< 5.60
same,pIC50,[27],< 5.60
same,pIC50,[28],< 5.60
same,pIC50,[29],< 5.60
same,pIC50,[30],6.23
same,pIC50,[31],< 5.60
same,pIC50,[32],< 5.60
same,pIC50,[33],< 5.60
same,pIC50,[34],< 5.60
same,pIC50,[35],< 5.60
same,pIC50,[36],< 5.60
same,pIC50,[37],< 5.60
same,pIC50,[38],< 5.60
same,pIC50,[39],< 5.60
same,pIC50,[40],< 5.60
same,pIC50,[41],< 5.60
same,pIC50,[42],< 5.60
same,pIC50,[43],< 5.60
same,pIC50,[44],< 5.60
same,pIC50,[45],< 5.60
same,pIC50,[46],< 5.60
same,pIC50,[47],< 5.60
same,pIC50,[48],5.87
same,pIC50,[49],< 5.60
same,pIC50,[50],< 5.60
same,pIC50,[51],< 5.60
same,pIC50,[52],6.52
same,pIC50,[53],< 5.60
same,pIC50,[54],5.73
same,pIC50,[55],< 5.60
same,pIC50,[56],6.85
same,pIC50,[57],< 5.60
same,pIC50,[58],< 5.60
same,pIC50,[59],< 5.60
same,pIC50,[60],< 5.60
same,pIC50,[61],< 5.60
same,pIC50,[62],< 5.60
same,pIC50,[63],< 5.60
same,pIC50,[64],< 5.60
